Reference: patent US12622965B2, “Therapeutical tools and methods using temperature-sensitive receptors for treating blindness” (FRIEDRICH MIESCHER INSTITUTE FOR BIOMEDICAL RESEARCH, priority 2020, dated 2026)

Test system: rd1 cones
Assay: two-photon calcium imaging of cone cell bodies and axon terminals in wholemount rd1 retinas
Assay type: cell-based, mouse
Excerpt: To measure if NIR light drives responses in cones, the inventors performed two-photon calcium imaging of individual cone cell bodies and axon terminals in wholemount rd1 retinas in three conditions: first, rTRPV1 with 915 nm nanorods, second, rTRPV without nanorods and third, 915 nm nanorods without rTRPV1. To detect calcium signals, the inventors genetically targeted the calcium indicator GCaMP6s to cones via AAV that expresses GCaMP6s under a cone-specific promoter (ProA7). GCaMP6s was expressed in 67±5.1% of rd1 cones (n=12,813 cones mm−2, n=8635 GCaMP6s positive cones mm−2, mean±s.d).
Near-infrared (NIR) pulses were produced by two custom-made, single wavelength NIR diode lasers emitting at 915 nm or 980 nm, modelled after J. Yao, B. Liu, and F. Qin. […] Total laser power output, as a function of driving voltage, was measured by placing cannula (CFM14L20) and patch cable (M37L02) output at the entrance of an integrating sphere photodiode power sensor (Thorlabs, S142C) with a PM100D read-out unit. Oscilloscope read-out of laser response time was obtained by applying a step control voltage to the lasers. […]
For two-photon calcium imaging of mouse cone photoreceptors, wild-type and rd1 retinas were isolated in oxygenated Ringer's medium. […] Fluorescence was analyzed semi-online via custom-made software written in Python by Z. Raics (A. Drinnenberg et al. Neuron 99, 117-134 e111 (2018)). […]

Substance: TRPV1.465-6x-His: rat TRPV1 channel with 6x-His epitope tag inserted in the first extracellular loop after amino acid 465; delivered by AAV
- reaction of rTRPV1 expressing cones to light without nanorods: did not react to light
